Article PMC9322122, “Development of (4-Phenylamino)quinazoline Alkylthiourea Derivatives as Novel NF-κB Inhibitors” (Pharmaceuticals, 2022)
Read-outs that look alike come from different tables or passages of the source. Each block holds one compound with its values, some of them ahead of it.

How the values were obtained:
[1] = Cell viability (WST-1), HEK293; format: cell-based; conditions: human, HEK293 cells, mean ± SEM, n = 3
Method: (§1) Cells were incubated with the WST-1 reagent (Thermo Fisher Scientific, Waltham, MA, USA) at 37 °C for 2 h. The cell viability was determined by spectrophotometer at 450 nm.

[2] = system: NF-κB; test: NF-κB luciferase reporter assay; format: cell-based; conditions: Homo sapiens, NF-κB-luciferase-transfected HEK293 cells, TNFα 50 ng/mL; for inhibition at 10 µM: mean ± SEM, n = 3, read-out: NF-κB Luciferase Activity Inh %
Method: NF-κB Luciferase Reporter Vector was purchased from Signosis (Santa Clara, CA, USA) and transfected into HEK-293 cells using FuGENE HD (Promega, Fitchburg, MA, USA) following the manufacturer’s protocol. The transfected cells were incubated in serum-free DMEM for 16 h and then treated with DMSO or indicated compounds. After 3 h, cells were treated with or without 50 ng/mL of Recombinant Human TNFα Protein (R&D systems, Minneapolis, MN, USA) for another 3 h. The protein lysates were analyzed using Steady-Glo® Luciferase Assay System (Promega, Fitchburg, MA, USA) and TECAN Infinite 200 pro (Männedorf, Switzerland).

[3] = system: NF-κB; design: method as in PMID 28291344; conditions: cell-based activity reporter assay; cited from earlier work
[4] = Cell viability (WST-1), A549; format: cell-based; conditions: human, A549 cells, mean ± SEM, n = 3
Method: as §1

[5] = system: TNFα; conditions: cited from earlier work
[6] = system: IL-1β production; conditions: THP-1 macrophage model cell line; read-out: IC50 for suppression of IL-1β production; cited from earlier work
[7] = system: IKKβ; conditions: read-out: cell-free IC50 IKKβ; cited from earlier work
[8] = system: IKKα; conditions: read-out: cell-free IC50 IKKα; cited from earlier work
[9] = system: TNFα production; conditions: THP-1 macrophage model cell line; read-out: IC50 for suppression of TNFα production; cited from earlier work
[10] = molecular target: EGFR kinase; design: method as in PMID 28291344; conditions: cell-free kinase assay at 100 µM ATP; cited from earlier work
[11] = system: dTHP−1 cells; test: Cell viability of dTHP-1 cells with or without LPS; format: cell-based, human; conditions: in % (unit assumed); for Cell viability of dTHP-1 cells, 5 μM, LPS / Cell viability of dTHP-1 cells, 5 μM, without LPS: 5 μM (so in the source)
Method: (§2) The HEK-293 (ATCC Cat# CRL-1573, RRID:CVCL_0045) and human monocytic THP−1 cells (ATCC Cat# TIB-202, RRID:CVCL_0006) were, respectively, cultured in DMEM and RPMI 1640 media supplemented with 10% fetal bovine serum, 2 mM L-glutamine, and 1× Antibiotic-Antimycotic at 37 °C in a humidified incubator with 5% CO2. THP−1 cells were differentiated by 100 nM phorbol-12-myristate-13-acetate (PMA) for 4 h and then rested for 44 h as dTHP−1 cells.
as §1
(§3) The dTHP−1 cells were treated with indicated compounds for 3 h and then activated with or without 100 ng/mL lipopolysaccharide (LPS; E. coli 0111:B4) for another 24 h. The levels of human IL-6 and TNFα in supernatants were measured by DuoSet® ELISA Development System (R&D systems, Minneapolis, MN, USA) according to the manufacturer’s protocol.

[12] = system: TNFα production; test: TNFα production in LPS-activated dTHP-1 cells (ELISA); format: cell-based; conditions: Homo sapiens; for IC50: LPS-activated dTHP-1 cells, 24 h; for inhibition at 7.5 µM / inhibition at 15 µM: LPS 100 ng/mL for 24 h, dTHP-1 cells; for inhibition at 7.5 µM: read-out: TNFα Production Inh % (7.5 μM); for inhibition at 15 µM: read-out: TNFα Production Inh % (15 μM)
Method: as §2, §3

[13] = system: IL-6 production; test: IL-6 production in LPS-activated dTHP-1 cells (ELISA); format: cell-based, human; conditions: Homo sapiens; for IC50: LPS-activated dTHP-1 cells, 24 h; for inhibition at 7.5 µM / inhibition at 15 µM: LPS 100 ng/mL for 24 h, dTHP-1 cells; for inhibition at 7.5 µM: read-out: IL-6 Production Inh % (7.5 μM); for inhibition at 15 µM: read-out: IL-6 Production Inh % (15 μM)
Method: as §2, §3

[14] = system: phospho-NF-κB p65 (S536); test: Western blot phospho-NF-κB p65 (S536) in dTHP-1 cells; format: cell-based, human; conditions: CAPE 10 µM; LPS-stimulated dTHP-1 cells
Method: Cells were lysed in the commercial RIPA Buffer (Thermo Fisher Scientific, Waltham, MA, USA) and then centrifuged at 14,000× g for 20 min. […] Antibodies used in this study were phospho-NF-κB p65 (S468; catalog no. 3039), phospho-NF-κB p65 (S536; catalog no. 3033), phospho-IKKα/β (catalog no. 2697), and IκB (catalog no. 9242) from Cell Signaling Technology (Beverly, MA, USA); GAPDH from ABclonal (catalog no. A10868; Woburn, MA, USA). The labeled signals were determined using an enhanced chemiluminescence system (UVP, Upland, CA, USA). The experiments were performed at least two times in triplicate, providing basically the same results.
The dTHP−1 cells were incubated with DMSO (0.1%), 19 (7.5 µM), or CAPE (10 µM) in medium for 3 h and then stimulated with or without LPS (0.1 µg/mL) for another 30 min. (A) The levels of phospho-NF-κB p65 (S536), phospho-IKKα/β, IκB, and GAPDH were determined by Western blot. The normalized (B) phospho-NF-κB p65 (S536), (C) phospho-IKKα/β, and (D) IκB levels were quantified. All data are expressed as mean ± SEM (n = 3); * p < 0.05 compared with the DMSO + LPS group.

[15] = molecular target: Recombinant EGFR kinase (Homo sapiens, UniProt P00533); test: Recombinant EGFR kinase activity; format: biochemical; conditions: read-out: Recombinant EGFR Kinase Activity (%inh at 150 nM)
Chain of Recombinant EGFR kinase (P00533 25-1210): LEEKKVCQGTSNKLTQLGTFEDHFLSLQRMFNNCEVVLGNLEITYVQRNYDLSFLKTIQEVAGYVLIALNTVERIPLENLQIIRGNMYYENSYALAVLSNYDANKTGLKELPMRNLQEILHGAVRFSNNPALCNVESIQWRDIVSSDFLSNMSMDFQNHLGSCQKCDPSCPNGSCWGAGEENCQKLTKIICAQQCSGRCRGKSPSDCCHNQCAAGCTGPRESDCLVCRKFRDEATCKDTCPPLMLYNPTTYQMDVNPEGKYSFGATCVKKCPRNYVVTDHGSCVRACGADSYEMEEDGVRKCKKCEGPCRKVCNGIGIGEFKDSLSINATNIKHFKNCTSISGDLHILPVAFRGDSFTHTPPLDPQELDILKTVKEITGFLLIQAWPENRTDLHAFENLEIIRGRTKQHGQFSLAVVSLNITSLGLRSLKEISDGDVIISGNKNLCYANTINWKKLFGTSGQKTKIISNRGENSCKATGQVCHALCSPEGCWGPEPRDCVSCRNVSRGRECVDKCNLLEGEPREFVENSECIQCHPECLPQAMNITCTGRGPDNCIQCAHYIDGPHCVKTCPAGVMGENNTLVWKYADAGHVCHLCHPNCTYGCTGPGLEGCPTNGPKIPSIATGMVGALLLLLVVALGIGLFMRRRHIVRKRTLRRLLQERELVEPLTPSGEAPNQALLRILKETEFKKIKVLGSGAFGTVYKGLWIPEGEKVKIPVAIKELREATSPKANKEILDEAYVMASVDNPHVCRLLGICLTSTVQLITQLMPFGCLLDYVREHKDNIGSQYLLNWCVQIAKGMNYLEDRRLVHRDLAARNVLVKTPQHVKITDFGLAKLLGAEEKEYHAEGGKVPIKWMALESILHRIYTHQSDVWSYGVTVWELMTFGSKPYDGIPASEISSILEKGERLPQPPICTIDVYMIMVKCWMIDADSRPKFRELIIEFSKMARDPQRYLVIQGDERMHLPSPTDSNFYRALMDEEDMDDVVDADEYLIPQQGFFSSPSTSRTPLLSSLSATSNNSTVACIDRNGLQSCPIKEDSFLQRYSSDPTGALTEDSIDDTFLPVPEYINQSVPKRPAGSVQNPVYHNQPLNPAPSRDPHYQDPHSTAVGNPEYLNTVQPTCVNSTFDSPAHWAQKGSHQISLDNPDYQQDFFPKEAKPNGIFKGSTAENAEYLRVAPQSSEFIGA

[16] = system: NF-κB p65 subunit; design: method as in PMID 28448872; conditions: covalent modification of the p65 subunit; read-out: IC50, interfering with the binding of NF-κB to its DNA recognition site; cited from earlier work
[17] = system: 26S proteasome; design: method as in PMID 20420526; conditions: read-out: IC50, inhibition of the activity of the 26S proteasome; cited from earlier work
[18] = system: IKKα/β; design: method as in PMID 10768472; conditions: read-out: IC50, targeting IKKα/β; cited from earlier work

IC50 [2]: 790 nM
Compound: S=C(NCc1ccccc1)Nc1ccc2ncnc(Nc3cccc(Cl)c3)c2c1 [A, reference compound]
viability at 10 µM [1]: 72.4 ± 3.9% | inhibition at 10 µM [2]: 94.6 ± 1.5% | IC50 [3]: 3.7 µM | viability at 10 µM [4]: 81.7 ± 1.2%

Compound: Cc1ccc2nc(NCCN)c3ncc(C)n3c2c1 [BMS-345541]
inhibition of TNFα in mice after administration of LPS [5]: effective in the inhibition of TNFα in mice | IC50 [6]: ~5 µM | IC50 [7]: 300 nM | IC50 [8]: 4 µM | IC50 [9]: ~5 µM

Compound: S=C(NCc1ccccc1)Nc1ccc2ncnc(Nc3ccc(Br)cc3)c2c1 [B]
IC50 [3]: 3.8 µM | IC50 [10]: > 150 nM

IC50 [12]: 11.4 ± 0.21 µM | IC50 [13]: 1100 ± 360 nM
Compound: O=C(/C=C/c1ccc(O)c(O)c1)OCCc1ccccc1 [CAPE, caffeic acid phenethyl ester, reference compound]
Cell viability of dTHP-1 cells, 10 μM, LPS ([11]; CAPE 10 μM, LPS 100 ng/mL for 24 h): 52.2 ± 9.7 | Cell viability of dTHP-1 cells, 10 μM, without LPS ([11]; CAPE 10 μM, no LPS): 97.8 ± 0.41 | inhibition at 10 µM [2]: 72.8% | Phosphorylation of p65 at Ser536 [14]: slight reduction in the p65 phosphorylation

Compound: CC(C)(C)c1ccc(Nc2ncnc3ccc(NC(=S)NCc4ccccc4)cc23)cc1 [C]
IC50 [3]: 5.5 µM | IC50 [10]: > 150 nM

IC50 [12]: 12.3 ± 1 µM | melting point: 219.1 to 220.2 °C | IC50 [2]: > 10000 nM | IC50 [13]: 720 ± 170 nM | inhibition at 0.15 µM [15]: 36.5%
Compound: S=C(Nc1ccc2ncnc(Nc3cccc(Cl)c3)c2c1)NC1CC1 [Compound 17, 1-(4-((3-Chlorophenyl)amino)quinazolin-6-yl)-3-cyclopropylthiourea]
Cell viability of dTHP-1 cells, 5 μM, LPS ([11]; LPS 100 ng/mL for 24 h): 62.0 ± 3.4 | Cell viability of dTHP-1 cells, 5 μM, without LPS ([11]; no LPS): 84.5 ± 4.8 | Cell viability of dTHP-1 cells, 7.5 μM, without LPS ([11]; no LPS): 94.3 ± 1.9 | inhibition at 7.5 µM [12]: 19 ± 8% | inhibition at 15 µM [12]: 62 ± 4.2% | viability at 10 µM [1]: 103 ± 8.4% | inhibition at 10 µM [2]: 47 ± 5.3% | inhibition at 7.5 µM [13]: 86 ± 2.3% | inhibition at 15 µM [13]: 95.8 ± 0.33% | viability at 10 µM [4]: 102.6 ± 0.2%

IC50 [12]: 11.5 ± 1.7 µM | melting point: 226.3 to 228 °C | IC50 [2]: 2800 nM | IC50 [13]: 1100 ± 360 nM | inhibition at 0.15 µM [15]: 59%
Compound: S=C(NCC1CC1)Nc1ccc2ncnc(Nc3cccc(Cl)c3)c2c1 [Compound 18, 1-(4-((3-Chlorophenyl)amino)quinazolin-6-yl)-3-(cyclopropylmethyl)thiourea]
Cell viability of dTHP-1 cells, 5 μM, LPS ([11]; LPS 100 ng/mL for 24 h): 11.2 ± 3.3 | Cell viability of dTHP-1 cells, 5 μM, without LPS ([11]; no LPS): 87.6 ± 2.5 | Cell viability of dTHP-1 cells, 7.5 μM, LPS ([11]; LPS 100 ng/mL for 24 h): 34.9 ± 1.6 | Cell viability of dTHP-1 cells, 7.5 μM, without LPS ([11]; no LPS): 82.7 ± 10.3 | inhibition at 7.5 µM [12]: 31 ± 4.5% | inhibition at 15 µM [12]: 65.9 ± 7.9% | viability at 10 µM [1]: 75.7 ± 3.8% | inhibition at 10 µM [2]: 89.9 ± 1.5% | inhibition at 7.5 µM [13]: 78.9 ± 14.8% | inhibition at 15 µM [13]: 89.4 ± 7% | viability at 10 µM [4]: 79.1 ± 0.6%

IC50 [12]: 5.1 ± 0.43 µM | melting point: 177.5 to 179.4 °C | IC50 [2]: 2000 nM | IC50 [13]: 940 ± 110 nM | inhibition at 0.15 µM [15]: 1.5%
Compound: CC(C)(C)NC(=S)Nc1ccc2ncnc(Nc3cccc(Cl)c3)c2c1 [Compound 20, 1-(tert-Butyl)-3-(4-((3-chlorophenyl)amino)quinazolin-6-yl)thiourea]
Cell viability of dTHP-1 cells, 5 μM, LPS ([11]; LPS 100 ng/mL for 24 h): 12.5 ± 0.23 | Cell viability of dTHP-1 cells, 5 μM, without LPS ([11]; no LPS): 42.5 ± 10.6 | Cell viability of dTHP-1 cells, 7.5 μM, LPS ([11]; LPS 100 ng/mL for 24 h): 32.5 ± 0.89 | Cell viability of dTHP-1 cells, 7.5 μM, without LPS ([11]; no LPS): 78.0 ± 0.09 | inhibition at 7.5 µM [12]: 57.4 ± 7.2% | inhibition at 15 µM [12]: 89.9 ± 0.88% | viability at 10 µM [1]: 99.7 ± 8% | inhibition at 10 µM [2]: 75.7 ± 3.1% | inhibition at 7.5 µM [13]: 91.8 ± 3.5% | inhibition at 15 µM [13]: 98.7 ± 1.2% | viability at 10 µM [4]: 98.1 ± 3.1%

Compound: C=C1C(=O)O[C@@H]2C[C@@H](C)[C@@H]3C=CC(=O)[C@@]3(C)[C@@H](O)[C@H]12 [helenalin]
IC50 [16]: 5 µM

Compound: C[C@@]12OC(=O)[C@]1([C@@H](O)[C@@H]1C=CCCC1)NC(=O)[C@@H]2CCCl [salinosporamide A]
IC50 [17]: 1.3 nM

Compound: cacospongiolide B
IC50 [18]: 260 nM
